Measured values as given in PubChem BioAssay AID1897 (NMMLSC, 2009).
Active and inactive are the calls of the source. No rule for the calls is given here.

These compounds were tested against Mitogen-activated protein kinase kinase kinase 2 (Homo sapiens) + Dual specificity mitogen-activated protein kinase kinase 5 (Homo sapiens) (UniProt Q9Y2U5+Q13163) (assay: inhibitors of MEK5 binding to MEKK2, dose response, biochemical, bead multiplex flow cytometry, wildtype (AID 1897)). Details: MEK5-MEKK2 PB1 binding.
Chain of Mitogen-activated protein kinase kinase kinase 2 (Homo sapiens) + Dual specificity mitogen-activated protein kinase kinase 5 (Homo sapiens) (Q13163 whole entry, looked up): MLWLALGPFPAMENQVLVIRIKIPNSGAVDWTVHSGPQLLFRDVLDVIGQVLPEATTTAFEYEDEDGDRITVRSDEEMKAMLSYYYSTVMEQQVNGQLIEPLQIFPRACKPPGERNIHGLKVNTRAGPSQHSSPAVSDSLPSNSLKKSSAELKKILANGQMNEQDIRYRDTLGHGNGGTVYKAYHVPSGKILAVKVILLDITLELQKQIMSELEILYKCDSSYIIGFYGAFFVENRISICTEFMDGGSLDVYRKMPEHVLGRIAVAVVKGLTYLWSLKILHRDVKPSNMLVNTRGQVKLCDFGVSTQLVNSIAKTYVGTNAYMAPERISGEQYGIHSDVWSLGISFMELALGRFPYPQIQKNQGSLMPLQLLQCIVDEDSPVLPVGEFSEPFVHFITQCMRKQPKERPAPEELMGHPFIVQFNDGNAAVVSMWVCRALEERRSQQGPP
Chain of Mitogen-activated protein kinase kinase kinase 2 (Homo sapiens) + Dual specificity mitogen-activated protein kinase kinase 5 (Homo sapiens) (Q9Y2U5 whole entry, looked up): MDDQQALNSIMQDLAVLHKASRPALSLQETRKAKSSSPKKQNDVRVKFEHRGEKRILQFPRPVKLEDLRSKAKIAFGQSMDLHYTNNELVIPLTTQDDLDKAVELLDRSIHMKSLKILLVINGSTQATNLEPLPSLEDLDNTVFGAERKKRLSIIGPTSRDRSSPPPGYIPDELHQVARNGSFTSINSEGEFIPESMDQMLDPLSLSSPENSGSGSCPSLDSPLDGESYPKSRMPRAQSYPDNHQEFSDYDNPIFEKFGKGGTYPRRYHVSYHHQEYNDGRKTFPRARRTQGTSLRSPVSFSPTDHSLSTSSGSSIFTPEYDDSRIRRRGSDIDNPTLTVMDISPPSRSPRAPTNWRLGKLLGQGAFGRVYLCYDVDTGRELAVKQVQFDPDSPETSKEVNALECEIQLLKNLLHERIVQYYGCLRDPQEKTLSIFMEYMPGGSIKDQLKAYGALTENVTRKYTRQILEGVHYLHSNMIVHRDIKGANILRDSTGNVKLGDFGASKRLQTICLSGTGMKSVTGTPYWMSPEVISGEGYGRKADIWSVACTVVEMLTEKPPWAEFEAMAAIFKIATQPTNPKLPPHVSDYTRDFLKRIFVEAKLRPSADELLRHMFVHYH
`CN(C)CCNc1ncnc2c1sc1nc(-c3ccccc3)c3c(c12)CCCC3` showed an EC50 of 3.37 µM. In the case of `COc1cc(/C=N/NC(=O)c2cc3ccccc3cc2O)ccc1OCCN1CCCCC1`, the EC50 is reported as > 30 µM (inactive). For `CCNc1ccc2noc3c2c1C(=O)c1ccccc1-3`, the EC50 was 4.95 µM. In the case of `O=C1c2ccccc2-c2onc3ccc(NCCCn4ccnc4)c1c23`, the EC50 is reported as > 30 µM (inactive). For `C#CCOCCOCCOCCNc1nc(N2CCN(C(=O)[C@H]([C@@H](C)CC)n3cc([C@@H](N)CC(C)C)nn3)CC2)nc(N2CCN(C(=O)[C@H](Cc3cc4ccccc4[nH]3)n3cc([C@@H](N)CC(C)C)nn3)CC2)n1`, the EC50 was 7.74 µM. For `CC(=O)Nc1cccc2c1C(=O)N(c1cccc(C)c1)C2=O`, the EC50 was > 30 µM (inactive). For `CC[C@@H](C)[C@H](CNC)NC[C@@H](Cc1cccc2ccccc12)NCCc1cccc(C(F)(F)F)c1`, the EC50 was 2.03 µM. `O=C(c1cc(COc2c(F)cccc2F)on1)N1C[C@H]2CC[C@H]1C2` was tested, and the EC50 was > 30 µM (inactive). In the case of `COc1ccc(-c2cc(C#N)nc(N3CCNCC3)n2)cc1`, the EC50 is reported as > 30 µM (inactive). Compound `CCc1ccc(Nc2n[n+](-c3ccccc3)c(-c3cc(OC)c(OC)cc3Br)s2)cc1` has an EC50 of 5.06 µM. `CCN1CCN(Cc2ccc(NC(=O)c3cc(NC(=O)C(=O)c4c[nH]c5ccccc45)cc(OC)c3)cc2C(F)(F)F)CC1` was tested, and the EC50 was 0.34 µM. Compound `CCCCCc1cc(=O)oc2c(C(CCN3CCCC(C)C3)c3ccc(OC)cc3)c(OC)cc(OC)c12` (stereo not given) has an EC50 of 9.57 µM. For `FC(F)(F)c1cccc(NC(=S)N(CCCN2CCCC2)Cc2cccn2Cc2ccc(Cl)cc2)c1`, the EC50 was 5.19 µM. For `COc1ccc(-n2nc3c(N)n[nH]c3cc2=O)cc1`, the EC50 was 1.48 µM. Compound `CCOC(=O)c1c(CSC(=N)N)n(-c2ccc(C)cc2)c2cc(Br)c(OC(C)=O)cc12` has an EC50 of 5.2 µM. With `CCCCN(CC)CCNC(=O)c1cc2c(-c3ccc(Cl)cc3)nn(C)c2s1` the EC50 was 14.4 µM. In the case of `C#CCOCCOCCOCCNc1nc(N2CCN(C(=O)[C@H](Cc3ccc(O)cc3)n3cc([C@@H](N)C(C)CC)nn3)CC2)nc(N2CCN(C(=O)[C@H](Cc3cc4ccccc4[nH]3)n3cc([C@@H](N)CC(C)C)nn3)CC2)n1` (stereo not given in full), the EC50 is reported as > 30 µM (inactive). Work on `CCC(/C=C1\Sc2ccc(OC)cc2N1CCO)=C\c1sc2ccc(OC)cc2[n+]1CCO` yielded an EC50 of 0.87 µM. In the case of `CCCN(CCC)CCNC(=O)c1cc2c(-c3ccc(Cl)cc3)nn(C)c2s1`, the EC50 is reported as 15.1 µM. `C#CCOCCOCCOCCNc1nc(N2CCN(C(=O)[C@H](Cc3ccc(O)cc3)n3cc([C@@H](N)CC(C)C)nn3)CC2)nc(N2CCN(C(=O)[C@H](Cc3ccc(O)cc3)n3cc([C@@H](N)CC(C)C)nn3)CC2)n1` showed an EC50 of 8.71 µM. `Cc1ccc(-c2c[n+](CC(=O)Nc3nc(-c4ccc(F)cc4)cs3)c3n2CCC3)cc1` showed an EC50 of 9.91 µM. `CS(=O)(=O)N1N=C(c2ccccc2)CC1c1ccc2c(c1)OCO2` (stereo not given) was tested, and the EC50 was > 30 µM (inactive). For `C#CCOCCOCCOCCNc1nc(N2CCN(C(=O)C([C@@H](C)CC)n3cc(C(N)COC(=O)C(F)(F)F)nn3)CC2)nc(N2CCN(C(=O)[C@H](CCCCN)n3cc(C(N)[C@H](C)CC)nn3)CC2)n1` (stereo not given in full), the EC50 was > 30 µM (inactive). `C=CC#CC[N+]1(CC#Cc2ccccc2)CCOCC1` was tested, and the EC50 was > 30 µM (inactive). For `CNc1nc(-c2c[nH]c3ccccc23)cs1`, the EC50 was > 30 µM (inactive). For `CN(C)c1ccc(/C=C/C=C2/SC(=S)N(c3ccccc3)C2=O)cc1`, the EC50 was 0.95 µM. In the case of `C#CCOCCOCCOCCNc1nc(N2CCN(C(=O)[C@H](Cc3cc4ccccc4[nH]3)n3cc([C@@H](N)C(C)CC)nn3)CC2)nc(N2CCN(C(=O)[C@H](Cc3cc4ccccc4[nH]3)n3cc([C@@H](N)CC(C)C)nn3)CC2)n1` (stereo not given in full), the EC50 is reported as 2.69 µM. Work on `NC(N)=N/N=C/c1ccc(OCc2ccc(Cl)cc2Cl)cc1` yielded an EC50 of 1.91 µM. With `O=C(OCC1O[C@@H](OC(=O)c2cc(O)c(O)c(O)c2)[C@@H](OC(=O)c2cc(O)c(O)c(O)c2)[C@@H](OC(=O)c2cc(O)c(O)c(O)c2)[C@@H]1OC(=O)c1cc(O)c(O)c(O)c1)c1cc(O)c(O)c(O)c1` (stereo not given in full) the EC50 was > 30 µM (inactive). In the case of `C#CCOCCOCCOCCNc1nc(N2CCN(C(=O)[C@H]([C@@H](C)CC)n3cc([C@@H](N)CO)nn3)CC2)nc(N2CCN(C(=O)[C@H](Cc3cc4ccccc4[nH]3)n3cc([C@@H](N)C(C)CC)nn3)CC2)n1` (stereo not given in full), the EC50 is reported as > 30 µM (inactive). `O=[N+]([O-])c1ccc(/C=C/C2=NN(c3ccccc3)C(c3ccco3)C2)o1` (stereo not given) was tested, and the EC50 was > 30 µM (inactive). `CCN(CC)CCOC(=O)c1ccc(N/C=C(/C#N)c2nc(-c3cc4ccccc4oc3=O)cs2)cc1` showed an EC50 of 4.88 µM. In the case of `COC(=O)c1c(C)oc(C)c1S(=O)(=O)N(Cc1ccccc1)C(C)C`, the EC50 is reported as > 30 µM (inactive). For `C#CCOCCOCCOCCNc1nc(N2CCN(C(=O)[C@H](CCC(=O)O)n3cc(C(N)CO)nn3)CC2)nc(N2CCN(C(=O)[C@H](Cc3cc4ccccc4[nH]3)n3cc(C(N)[C@H](C)CC)nn3)CC2)n1` (stereo not given in full), the EC50 was > 30 µM (inactive). With `CC(C)N=c1cc2n(-c3ccc(Cl)cc3)c3ccccc3nc-2cc1Nc1ccc(Cl)cc1` the EC50 was > 30 µM (inactive). Compound `CCCCCCOc1ccc(/C(C)=N/NC2=NCCN2)cc1[N+](=O)[O-]` has an EC50 of 9.29 µM. Work on `COc1cccc(OC)c1-c1nn2c(-c3cc(-c4ccccc4)n[nH]3)nnc2s1` yielded an EC50 of 5.32 µM. With `COc1ccc(Cn2c(SCc3ccccc3C)nc3cc(OC)c(OC)cc3c2=N)cc1` the EC50 was > 30 µM (inactive). For `CCN(CC)CCOC(=O)c1ccc(N/C=C(/C#N)c2nc(-c3ccc(OC)cc3)cs2)cc1`, the EC50 was > 30 µM (inactive). With `COCCNC(=O)CN(c1cc(Cl)ccc1OC)S(=O)(=O)c1ccc(C)c([N+](=O)[O-])c1` the EC50 was > 30 µM (inactive). For `O=C(CCCC(=O)N(CC(=O)NC1CCCC1)C1CCCC1)Nc1ccccn1`, the EC50 was > 30 µM (inactive). With `CCN1CCN(CCNC(=O)c2ccc(/C=C3/Sc4ccccc4N(Cc4cccc(C)c4)C3=O)cc2)CC1` the EC50 was 6.61 µM. In the case of `CCOC(=O)N1CCN(c2c(N3CCN(c4ccccc4F)CC3)c(=O)c2=O)CC1`, the EC50 is reported as > 30 µM (inactive). `CCN(CC)CCOC(=O)c1ccc(N/C=C(/C#N)c2nc(-c3cccc(OC)c3)cs2)cc1` was tested, and the EC50 was > 30 µM (inactive). Work on `CCOC(=O)C1=C(c2ccccc2)NC(N)=NC1c1ccc(OCc2ccc(Cl)cc2)c(OC)c1` (stereo not given) yielded an EC50 of 0.58 µM. In the case of `COc1ccc(Cn2cc3c(-c4ccc(F)cc4)nnc-3c3cc(OC)c(OC)cc32)cc1`, the EC50 is reported as 1.15 µM. In the case of `CCN1/C(=C/c2ccc3cc(C)ccc3[n+]2C)Sc2ccc3sccc3c21`, the EC50 is reported as > 30 µM (inactive). In the case of `CN(C)c1ccc(NC(=O)CN2CCC(O)(c3ccccc3)CC2)cc1`, the EC50 is reported as > 30 µM (inactive). `CCN1CCN(Cc2ccc(NC(=O)c3ccc(C)c(NC(=O)C(=O)c4c[nH]c5ccccc45)c3)cc2C(F)(F)F)CC1` was tested, and the EC50 was > 30 µM (inactive). In the case of `O=C(NNc1c2ccccc2nc2ccccc12)c1cc2ccccc2cc1O`, the EC50 is reported as > 30 µM (inactive). With `CCCCCCCCCCOC(=O)Cn1c(COc2cccc(OC)c2)[n+](C)c2ccccc21` the EC50 was 4.33 µM. For `Cc1nn2c(N)csc2nc1=O`, the EC50 was 4.09 µM. For `CC(C)n1cc(CN2CCC(C(=O)Nc3cccc(-c4cccc(Cl)c4)c3)CC2)cn1`, the EC50 was > 30 µM (inactive). Work on `NC(N)=N/N=C/c1ccc(OCc2ccccc2Cl)cc1` yielded an EC50 of 19.2 µM. `CN(C)CCCNc1cc(C(C)(C)C)nc2c(-c3ccc(Cl)cc3)cnn12` gave an EC50 of 4.35 µM. `CCN1/C(=C/C=C/C=C/C=C/c2sc3ccccc3[n+]2CC)Sc2ccccc21` was tested, and the EC50 was > 30 µM (inactive). `CCCN1C(=O)/C(=C\C=C2/Sc3ccccc3N2CC)SC1=S` was tested, and the EC50 was 3.03 µM.

Same assay, conditions: MEK5-MEKK2 PB1 binding, measured here: Ki from binding competition
For `CCNc1ccc2noc3c2c1C(=O)c1ccccc1-3`, the Ki was 4.43 µM. In the case of `COc1ccc(-n2nc3c(N)n[nH]c3cc2=O)cc1`, the Ki is reported as 1.33 µM. `CCC(/C=C1\Sc2ccc(OC)cc2N1CCO)=C\c1sc2ccc(OC)cc2[n+]1CCO` showed a Ki of 0.78 µM. Compound `CN(C)c1ccc(/C=C/C=C2/SC(=S)N(c3ccccc3)C2=O)cc1` has a Ki of 0.85 µM. For `CCN(CC)CCOC(=O)c1ccc(N/C=C(/C#N)c2nc(-c3cc4ccccc4oc3=O)cs2)cc1`, the Ki was 4.36 µM. For `COc1cccc(OC)c1-c1nn2c(-c3cc(-c4ccccc4)n[nH]3)nnc2s1`, the Ki was 4.76 µM. In the case of `Cc1nn2c(N)csc2nc1=O`, the Ki is reported as 3.66 µM. `CCCN1C(=O)/C(=C\C=C2/Sc3ccccc3N2CC)SC1=S` showed a Ki of 2.71 µM.
